Experimental data as given in PMC5520195 (Acta Pharmacologica Sinica, 2017).

Legend:
[1] = tested on: 4T1.2 mouse breast cancer cells; experiment: MTT cytotoxicity assay; assay type: cell-based; conditions: 4T1.2 cells, 72 h
[2] = Plasma pharmacokinetics of DOX after iv administration; assay type: in vivo; conditions: DOX in plasma, BALB/c mice, 5 mg DOX/kg

AUC0–infinity [2]: 2930 ng·h/mL
CL [2]: 28.8 mL/min/kg
Cmax [2]: 6270 ng/mL
Structure (SMILES): COc1cccc2c1C(=O)c1c(O)c3c(c(O)c1C2=O)C[C@@](O)(C(=O)CO)C[C@@H]3O[C@H]1C[C@H](N)[C@H](O)[C@H](C)O1 [DOX, doxorubicin]
cytotoxicity (MTT) [1]: cytotoxic effect on tumor cells in a concentration-dependent manner
